From patent US4105603A, “Peptides which effect release of hormones” (The Salk Institute for Biological Studies, priority 1977, dated 1978) come the findings set out here.

In one experiment the test system is glucagon secretion. In words: In vivo bioassay: inhibition of glucagon release, portal vein plasma after i.v. peptide. More on the design: species or system Sprague-Dawley-CD rats. As to conditions: rat, external jugular vein administration, somatostatin = 100. How it is done: (§1) An investigation of the effect of somatostatin, dihydrosomatostatin, (as controls) and the peptides of the invention to inhibit the release of glucagon and insulin was made as follows:
(§2) In vivo Bioassay: Male Sprague-Dawley-CD rats weighing 180-200 g housed in temperature and humidity controlled quarters with 14h light and 10h dark (light 0700-[…]) were used in all experiments. Animals were fed a standard ration and tap water ad libitum. Experiments were carried out at least 5 days after arrival of rats from the supplier between the hours 1400 to 1600. After ether anesthesia, peptides or saline were administered in a volume of 0.2 ml. via the external jugular vein. Animals remained anesthetized until the time of blood collection from the portal vein. […]
(§3) Plasma was stored at -20° C for insulin and glucagon determinations. Insulin levels were determined by the method of Herbert et al, […]. […] Glucagon was determined by the method of Faloona and Unger, in Jaffe et al ed., Methods of Hormone Radioimmunoassay, Academic Press, New York, 1974, p. […] was determined by the glucose oxidase method, utilizing a Beckman Glucose Analyzer.
(§4) All experiments were carried on in a randomized block design. Following analysis of variance difference between treatments were determined by the multiple range tests of Dunnett and Duncan. Potency values were calculated from four or six point bioassays.

In experiment [1] the test system is rat anterior pituitary cells. In words: In vitro bioassay: secretion of growth hormone by primary cultures of dissociated rat anterior pituitary cells. Type of experiment: cell-based. As to conditions: cultured rat anterior pituitary cells, somatostatin = 100. The procedure: In vitro Bioassay: The effects of the various peptides of the invention were tested in vitro on the secretion of growth hormone by primary cultures of enzymatically dissociated rat anterior pituitary cells by the method of Vale et al., Endocrinology 91: p 562-571 (1972). The assay is made by treating pituitary glands removed from rats to separate cells therefrom. The cells are placed in culture dishes in Dulbecco's Modified Eagle Medium (Dulbecco et al., Virology, Vol. 8, p. 396, […]). Carbon dioxide gas and oxygen are supplied to the cell cultures which are maintained at 37° C for 4-5 days prior to use in the assay. Following media changes, cell cultures are incubated for a period of 4 hours and particular somatostatin peptides are added thereto. Radioimmunoassay analysis is used to determine the rate of growth hormone secretion which is expressed in nanograms per hour.
GH determinations were performed on tissue culture media utilizing the following reagents: NIAMDD rat GH standard (GH-RP-1), NIAMDD monkey anti-rat GH (GH-Serum-3), and highly purified rat GH for iodination.
as §4

Another experiment has as its system insulin secretion. Briefly: In vivo bioassay: inhibition of insulin release, portal vein plasma after i.v. peptide. More on the design: species or system Sprague-Dawley-CD rats. Conditions: rat, external jugular vein administration, somatostatin = 100. How it is done:
as §1, §2, §3, §4

Non-standard residues stand in square brackets, D forms with d.

Turning to `C[C@H](N)C(=O)NCC(=O)N[C@H]1CSSC[C@@H](C(=O)O)NC(=O)[C@H](CO)NC(=O)[C@H]([C@@H](C)O)NC(=O)[C@H](Cc2ccccc2)NC(=O)[C@H]([C@@H](C)O)NC(=O)[C@H](CCCCN)NC(=O)[C@H](Cc2c[nH]c3ccccc23)NC(=O)[C@H](Cc2ccccc2)NC(=O)[C@H](Cc2ccccc2)NC(=O)[C@H](CC(N)=O)NC(=O)[C@H](CCCCN)NC1=O` [Somatostatin, somatostatin], in the experiment with glucagon secretion, the “percent effectiveness for inhibiting secretion of Glucagon, somatostatin taken as the base” value was 100%. For the same compound, the “percent effectiveness for inhibiting secretion of Growth Hormone, somatostatin taken as the base” value in experiment [1] was determined as 100%. Also, the “percent effectiveness for inhibiting secretion of Insulin, somatostatin taken as the base” value in the experiment on insulin secretion was 100%.

Turning to “H-CFF[dW]KFFC-OH (cysteine pairing not given here) [desR1 D-Trp Phe desR4 desR5]”, the “percent effectiveness for inhibiting secretion of Glucagon, somatostatin taken as the base” value in the experiment on glucagon secretion amounted to 100%. In addition, the “percent effectiveness for inhibiting secretion of Growth Hormone, somatostatin taken as the base” value in experiment [1] turned out to be 6%. Also, the “percent effectiveness for inhibiting secretion of Insulin, somatostatin taken as the base” value with insulin secretion was found to be 80%.
